Data reported in patent publication US20050080113A1, “Medicinal compositions” (priority 2001, published 2005).

SMILES	melting point [°C]
CCC(=O)Nc1cc(-c2sc(C3CCN(C)CC3)nc2-c2cccc(Cl)c2)ccn1.Cl.Cl	350 to 351
Cc1cccc(-c2nc(NC(=O)NCCCl)sc2-c2ccnc(C)c2)c1	149 to 151
CC(=O)Nc1cc(-c2sc(C3CCNCC3)nc2-c2cccc(Cl)c2)ccn1.Cl.Cl	193 to 195
CCC(=O)Nc1cc(-c2sc(C3CCNCC3)nc2-c2cccc(Cl)c2)ccn1.Cl.Cl	202 to 203
CCc1nc(-c2cccc(Cl)c2)c(-c2ccnc(N[C@@H](C)c3ccccc3)c2)s1.Cl	165 to 166
COc1ccc(-c2nc(N)sc2-c2ccncc2)cc1 [13-14, [4-(4-methoxyphenyl)-5-(4-pyridyl)-1,3-thiazol-2-yl]amine]	282 to 284
Nc1nc(-c2ccccc2)c(-c2ccncc2)s1 [13-15, [4-phenyl-5-(4-pyridyl)-1,3-thiazol-2-yl]amine]	248 to 250
Cc1cccc(-c2nc(-c3ccc(F)cc3)sc2-c2ccnc(NC(=O)Cc3ccccc3)c2)c1 [D 14, N-[4-[2-(4-fluorophenyl)-4-(3-methylphenyl)-1,3-thiazol-5-yl]-2-pyridyl]phenylacetamide]	187 to 190
COc1ccc(-c2nc(C)sc2-c2ccnc(NC(=O)Cc3ccccc3)c2)cc1 [D 15-1, N-[4 [4 (4 methoxyphenyl)-2 methyl-1,3 thiazol-5 yl]-2 pyridyl]phenylacetamide]	118 to 120
CCCCc1nc(-c2cccc(C)c2)c(-c2ccnc(NC(=O)Cc3ccccc3)c2)s1 [D 15-4, N-[4-[2-butyl-4-(3-methylphenyl)-1,3-thiazol-5-yl]-2-pyridyl]phenylacetamide]	92 to 93
CCCc1nc(-c2cccc(C)c2)c(-c2ccnc(NC(=O)CCc3ccccc3)c2)s1 [D 16-8, N-[4-[4-(3-methylphenyl)-2-propyl-1,3-thiazol-5-yl]-2-pyridyl]-3-phenylpropionamide]	103 to 104
Cc1cccc(-c2nc(-c3ccc(F)cc3)sc2-c2ccnc(NC(=O)c3ccccc3)c2)c1 [D 16-11, N-[4-[2-(4-fluorophenyl)-4-(3-methylphenyl)-1,3-thiazol-5-yl]-2-pyridyl]benzamide]	126 to 128
Cc1cccc(-c2nc(-c3ccc(F)cc3)sc2-c2ccnc(NC(=O)CCc3ccccc3)c2)c1 [D 16-12, N-[4-[2-(4-fluorophenyl)-4-(3-methylphenyl)-1,3-thiazol-5-yl]-2-pyridyl]-3-phenylpropionamide]	169 to 171
Cc1cccc(-c2nc(-c3ccccc3Cl)sc2-c2ccnc(NC(=O)c3ccccc3)c2)c1 [D 16-13, N-[4 [2 (2 chlorophenyl)-4 (3 methylphenyl)-1,3 thiazol-5 yl]-2 pyridyl]benzamide]	138 to 140
Cc1cccc(-c2nc(-c3ccccc3Cl)sc2-c2ccnc(NC(=O)CCc3ccccc3)c2)c1 [D 16-14, N-[4 [2 (2 chlorophenyl)-4 (3 methylphenyl)-1,3 thiazol-5 yl]-2 pyridyl]-3-phenylpropionamide]	156 to 158
CSc1ccc(-c2nc(-c3cccc(C)c3)c(-c3ccnc(NC(=O)c4ccccc4)c3)s2)cc1 [D 16-15, N-[4-[4-(3-methylphenyl)-2-(4-methylthiophenyl)-1,3-thiazol-5-yl]-2-pyridyl]benzamide]	180 to 182
CSc1ccc(-c2nc(-c3cccc(C)c3)c(-c3ccnc(NC(=O)CCc4ccccc4)c3)s2)cc1 [D 16-16, N-[4-[4-(3-methylphenyl)-2-(4-methylthiophenyl)-1,3-thiazol-5-yl]-2-pyridyl]-3-phenylpropionamide]	174 to 175
CSc1ccc(-c2nc(-c3cccc(C)c3)c(-c3ccnc(NC(=O)c4cccs4)c3)s2)cc1 [D 16-17, N-[4 [4 (3 methylphenyl)-2 (4 methylthiophenyl)-1,3 thiazol-5 yl]-2 pyridyl]-2-thiophenecarboxamide]	145 to 147
CSc1ccc(-c2nc(-c3cccc(C)c3)c(-c3ccnc(NC(=O)c4ccc5ccccc5c4)c3)s2)cc1 [D 16-18, N-[4 [4 (3 methylphenyl)-2 (4 methylthiophenyl)-1,3 thiazol-5 yl]-2 pyridyl]-2-naphthamide]	184 to 186
COc1ccc(-c2nc(C)sc2-c2ccnc(NCc3ccccc3)c2)cc1 [D 19-1, N-benzyl-N-[4 [4 (4 methoxyphenyl)-2 methyl-1,3 thiazol-5 yl]-2 pyridyl]amine]	132 to 133
Cc1cccc(-c2nc(-c3ccc(F)cc3)sc2-c2ccnc(NCc3ccccc3)c2)c1 [D 19-11, N-benzyl-N-[4 [2 (4-fluorophenyl)-4 (3 methylphenyl)-1,3 thiazol-5 yl]-2-pyridyl]amine]	143 to 146
Cc1cccc(-c2nc(-c3ccc(F)cc3)sc2-c2ccnc(NCCc3ccccc3)c2)c1 [D 19-12, N-[4 [2 (4 fluorophenyl)-4 (3 methylphenyl)-1,3 thiazol-5 yl]-2 pyridyl]-N-(2-phenylethyl)amine]	97 to 98
Cc1cccc(-c2nc(-c3ccccc3Cl)sc2-c2ccnc(NCc3ccccc3)c2)c1 [D 19-14, N-benzyl-N-[4 [2 (2-chlorophenyl)-4 (3 methylphenyl)-1,3 thiazol-5 yl]-2-pyridyl]amine]	84 to 88
Cc1cccc(-c2nc(-c3ccccc3Cl)sc2-c2ccnc(NCCc3ccccc3)c2)c1 [D 19-15, N-[4 [2 (2 chlorophenyl)-4 (3 methylphenyl)-1,3 thiazol-5 yl]-2 pyridyl]-N-(2-phenylethyl)amine]	113 to 114
Cc1cccc(-c2nc(-c3ccccc3Cl)sc2-c2ccnc(NCCCc3ccccc3)c2)c1 [D 19-16, N-[4 [2 (2 chlorophenyl)-4 (3 methylphenyl)-1,3 thiazol-5 yl]-2 pyridyl]-N-(3-phenylpropyl)amine]	101 to 102
CSc1ccc(-c2nc(-c3cccc(C)c3)c(-c3ccnc(NCc4ccccc4)c3)s2)cc1 [D 19-17, N-benzyl-N-[4-[4-(3-methylphenyl)-2-(4-methylthiophenyl)-1,3-thiazol-5-yl]-2-pyridyl]amine]	134 to 136
CSc1ccc(-c2nc(-c3cccc(C)c3)c(-c3ccnc(NCCc4ccccc4)c3)s2)cc1 [D 19-18, N-[4-[4-(3-methylphenyl)-2-(4-methylthiophenyl)-1,3-thiazol-5-yl]-2-pyridyl]-N-(2-phenylethyl)amine]	137 to 139
CSc1ccc(-c2nc(-c3cccc(C)c3)c(-c3ccnc(NCCCc4ccccc4)c3)s2)cc1 [D 19-19, N-[4-[4-(3-methylphenyl)-2-(4-methylthiophenyl)-1,3-thiazol-5-yl]-2-pyridyl]-N-(3-phenylpropyl)amine]	106 to 107

Now from value to compound:

melting point [°C]	SMILES
242 to 244	Cc1cc(C)cc(-c2nc(N)sc2-c2ccncc2)c1 [23-133, [4 (3,5 dimethylphenyl)-5 (4 pyridyl)-1,3 thiazol-2 yl]amine]
280 to 281	CC(=O)Nc1nc(-c2ccc(C(C)(C)C)cc2)c(-c2ccncc2)s1 [23-137, N-[4 [4 (1,1 dimethylethyl)phenyl]-5 (4 pyridyl)-1,3 thiazol-2 yl]acetamide]
254 to 257	CC(C)(C)c1ccc(-c2nc(N)sc2-c2ccncc2)cc1 [23-143, [4 [4 (1,1 dimethylethyl)phenyl]-5 (4 pyridyl)-1,3 thiazol-2-yl]amine]
292 to 294	CC(C)(C)c1ccc(-c2nc(NC(=O)c3ccccc3)sc2-c2ccncc2)cc1 [23-164, N-[4 [4 (1,1 dimethylethyl)phenyl]-5 (4 pyridyl)-1,3 thiazol-2 yl]benzamide]
326 to 328	CC(C)(C)c1ccc(-c2nc(NC(=O)c3cccnc3)sc2-c2ccncc2)cc1 [23-165, N-[4 [4 (1,1 dimethylethyl)phenyl]-5 (4 pyridyl)-1,3 thiazol-2 yl]nicotinamide]
309 to 311	CC(C)(C)c1ccc(-c2nc(NC(=O)C3CCCC3)sc2-c2ccncc2)cc1 [23-168, N-[4 [4 (1,1 dimethylethyl)phenyl]-5 (4 pyridyl)-1,3 thiazol-2 yl]cyclopentanecarboxamide]
291 to 293	CCC(=O)Nc1nc(-c2cc(C)cc(C)c2)c(-c2ccncc2)s1 [23-194, N-[4 (3,5 dimethylphenyl)-5 (4 pyridyl)-1,3 thiazol-2-yl]propionamide]
270 to 272	Cc1cc(C)cc(-c2nc(NC(=O)C(C)C)sc2-c2ccncc2)c1 [23-195, N-[4 (3,5 dimethylphenyl)-5 (4 pyridyl)-1,3 thiazol-2 yl]-2-methylpropionamide]
226 to 229	Cc1cc(C)cc(-c2nc(NC(=O)Cc3ccccc3)sc2-c2ccncc2)c1 [23-196, N-[4 (3,5 dimethylphenyl)-5 (4 pyridyl)-1,3 thiazol-2 yl]-2-phenylacetamide]
285 to 286	Cc1cc(C)cc(-c2nc(NC(=O)c3ccccc3)sc2-c2ccncc2)c1 [23-197, N-[4 (3,5 dimethylphenyl)-5 (4 pyridyl)-1,3 thiazol-2-yl]benzamide]
275 to 278	Cc1cc(C)cc(-c2nc(NC(=O)C3CCCC3)sc2-c2ccncc2)c1 [23-198, N-[4 (3,5 dimethylphenyl)-5 (4 pyridyl)-1,3 thiazol-2-yl]cyclopentanecarboxamide]
267 to 270	Cc1cc(C)cc(-c2nc(NC(=O)c3cccnc3)sc2-c2ccncc2)c1 [23-199, N-[4 (3,5 dimethylphenyl)-5 (4 pyridyl)-1,3 thiazol-2-yl]nicotinamide]
202 to 203	CCNC(=O)Nc1nc(-c2cc(C)cc(C)c2)c(-c2ccncc2)s1 [23-201, N-[4 (3,5 dimethylphenyl)-5 (4 pyridyl)-1,3 thiazol-2 yl]-N′-ethylurea]
128 to 130	CCCNC(=O)Nc1nc(-c2cc(C)cc(C)c2)c(-c2ccncc2)s1 [23-202, N-[4 (3,5 dimethylphenyl)-5 (4 pyridyl)-1,3 thiazol-2 yl]-N′-propylurea]
269 to 270	Cc1cc(C)cc(-c2nc(NC(=O)c3cnccn3)sc2-c2ccncc2)c1 [23-246, N-[4 (3,5 dimethylphenyl)-5 (4 pyridyl)-1,3 thiazol-2-yl]pyrazinecarboxamide]
